Results reported in patent US20250270213A1, “PI3Ka INHIBITORS” (Synnovation Therapeutics, Inc., priority 2022, published 2025).

System: T47D (PIK3CA H1047R) cells
Test: pS473 AKT assay with 2.5% FBS, T47D cells
Format: cell-based
Details: Homo sapiens, pSer473 AKT, DMEM with 2.5% FBS, 2 h treatment, read-out: T47D_IC50
Method in brief: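 In-cell chemiluminescent ELISA of AKT Ser473 phosphorylation, using anti-pSer473 primary and HRP secondary antibodies on fixed cells. T47D (PIK3CA H1047R) cells had 2 h of compound treatment in DMEM containing 2.5% FBS; IC50 derived from dose-response.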

SMILES | IC50 [nM]
Cc1cc(C(C)Nc2ccc(Cl)nc2-c2cnn(C)c2)c2c(c1)c(=O)n(C)c1c2cnn1Cc1ccccn1 (stereo not shown) [Example 275, 9-[1-[[6-Chloro-2-(1-methylpyrazol-4-yl)-3-pyridyl]amino]ethyl]-4,7-dimethyl-3-(2-pyridylmethyl)pyrazolo[3,4-c]isoquinolin-5-one] | < 1000
CCn1ncc2c3c(C(C)Nc4ccc(Cl)nc4-c4cnnn4C)cc(C)cc3c(=O)n(C)c21 (stereo not shown) [Example 231, 9-(1-((6-chloro-2-(1-methyl-1H-1,2,3-triazol-5-yl)pyridin-3-yl)amino)ethyl)-3-ethyl-4,7-dimethyl-3,4-dihydro-5H-pyrazolo[3,4-c]isoquinolin-5-one] | < 1000
Cc1cc(C(C)Nc2ccc(Cl)nc2-c2ncn(C)n2)c2c(c1)c(=O)n(C)c1c(C3CCN(C)CC3)ncn21 (stereo not shown) [Compound 131, 9-(1-((6-Chloro-2-(1-methyl-1H-1,2,4-triazol-3-yl)pyridin-3-yl)amino)ethyl)-4,7-dimethyl-3-(1-methylpiperidin-4-yl) imidazo[1,5-a]quinazolin-5(4H)-one] | < 1000
[2H]C([2H])([2H])n1c(=O)c2cc(C)cc(C(C)Nc3ccc(Cl)nc3-c3cnn(C)c3)c2c2cnn(C3CCN(C(=O)CN(C)C)C3)c21 (stereo not shown) [Compound 155, 9-(1-((6-chloro-2-(1-methyl-1H-pyrazol-4-yl)pyridin-3-yl)amino)ethyl)-3-(1-(dimethylglycyl)pyrrolidin-3-yl)-7-methyl-4-(methyl-d3)-3,4-dihydro-5H-pyrazolo[3,4-c]isoquinolin-5-one] | < 1000
COC(=O)N1CCC(n2ncc3c4c(C(C)Nc5ccc(Cl)nc5-c5cnn(C)c5)cc(C)cc4c(=O)n(C)c32)CC1 (stereo not shown) [Example 184, methyl 4-[9-[1-[[6-chloro-2-(1-methylpyrazol-4-yl)-3-pyridyl]amino]ethyl]-4,7-dimethyl-5-oxo-pyrazolo[3,4-c]isoquinolin-3-yl]piperidine-1-carboxylate] | < 1000
[2H]C([2H])([2H])n1c(=O)c2cc(C)cc(C(C)Nc3ccc(Cl)nc3-c3cnn(C)c3)c2c2cnn(C3CCN(CCC#N)C3)c21 (stereo not shown) [Compound 152, 3-(3-(9-(1-((6-Chloro-2-(1-methyl-1H-pyrazol-4-yl)pyridin-3-yl)amino)ethyl)-7-methyl-4-(methyl-d3)-5-oxo-4,5-dihydro-3H-pyrazolo[3,4-c]isoquinolin-3-yl)pyrrolidin-1-yl)propanenitrile] | < 1000
Cc1cc(C(C)Nc2ccc(Cl)nc2-c2ncn(C)n2)c2c(c1)c(=O)n(C)c1c(C(=O)N(C)C)ncn21 (stereo not shown) [Compound 119, 9-(1-((6-Chloro-2-(1-methyl-1H-1,2,4-triazol-3-yl)pyridin-3-yl)amino)ethyl)-N,N,4,7-tetramethyl-5-oxo-4,5-dihydroimidazo[1,5-a]quinazoline-3-carboxamide] | < 1000
Cc1cc(C(C)Nc2ccc(Cl)nc2-c2ccc(C#N)cc2)c2c(c1)c(=O)n(C)c1c(C(=O)N(C)C)ncn21 (stereo not shown) [Compound 126, 9-(1-((6-chloro-2-(4-cyanophenyl)pyridin-3-yl)amino)ethyl)-N,N,4,7-tetramethyl-5-oxo-4,5-dihydroimidazo[1,5-a]quinazoline-3-carboxamide] | < 1000
Cc1cc(C(C)Nc2ccc(Cl)nc2-c2cnn(C)c2)c2c(c1)c(=O)n(C)c1c2cnn1-c1ccccn1 (stereo not shown) [Example 273, 9-(1-((6-chloro-2-(1-methyl-1H-pyrazol-4-yl)pyridin-3-yl)amino)ethyl)-4,7-dimethyl-3-(pyridin-2-yl)-3,4-dihydro-5H-pyrazolo[3,4-c]isoquinolin-5-one] | < 1000
Cc1cc(C(C)Nc2ccc(Cl)nc2-c2cnn(C)c2)c2c(c1)c(=O)n(C)c1c2cnn1C1CCN(C)C1 (stereo not shown) [Compound 135, 9-(1-((6-Chloro-2-(1-methyl-1H-pyrazol-4-yl)pyridin-3-yl)amino)ethyl)-4,7-dimethyl-3-(1-methylpyrrolidin-3-yl)-3,4-dihydro-5H-pyrazolo[3,4-c]isoquinolin-5-one] | < 1000
Cc1cc(C(C)Nc2ccc(Cl)nc2-c2ncn(C)n2)c2c(c1)c(=O)n(C)c1c2cnn1CCO (stereo not shown) [Example 242, 9-(1-((6-Chloro-2-(1-methyl-1H-1,2,4-triazol-3-yl)pyridin-3-yl)amino)ethyl)-3-(2-hydroxyethyl)-4,7-dimethyl-3,4-dihydro-5H-pyrazolo[3,4-c]isoquinolin-5-one] | < 1000
Cc1cc(C(C)Nc2ccc(Cl)nc2-c2ncn(C)n2)c2c(c1)c(=O)n(C)c1c2cnn1C1CCN(CCO)CC1 (stereo not shown) [Compound 177, 9-[1-[[6-Chloro-2-(1-methyl-1,2,4-triazol-3-yl)-3-pyridyl]amino]ethyl]-3-[1-(2-hydroxyethyl)-4-piperidyl]-4,7-dimethyl-pyrazolo[3,4-c]isoquinolin-5-one] | < 1000
COC(=O)N1CC(n2ncc3c4c(C(C)Nc5ccc(Cl)nc5-c5ncn(C)n5)cc(C)cc4c(=O)n(C)c32)C1 (stereo not shown) [Compound 98, methyl 3-(9-(1-((6-chloro-2-(1-methyl-1H-1,2,4-triazol-3-yl)pyridin-3-yl)amino)ethyl)-4,7-dimethyl-5-oxo-4,5-dihydro-3H-pyrazolo[3,4-c]isoquinolin-3-yl)azetidine-1-carboxylate] | < 1000
CCn1ncc2c3c(C(C)Oc4ccc(Cl)nc4-c4c[nH]nc4C)cc(C)cc3c(=O)n(C)c21 (stereo not shown) [Example 226, 9-(1-((6-Chloro-2-(3-methyl-1H-pyrazol-4-yl)pyridin-3-yl)oxy)ethyl)-3-ethyl-4,7-dimethyl-3,4-dihydro-5H-pyrazolo[3,4-c]isoquinolin-5-one] | < 1000
[2H]C([2H])([2H])n1c(=O)c2cc(C)cc(C(C)Nc3ccc(Cl)nc3-c3cnn(C)c3)c2c2cnn([C@H]3CCOC3)c21 (stereo partly drawn) [Example 214, 9-(1-((6-chloro-2-(1-methyl-1H-pyrazol-4-yl)pyridin-3-yl)amino)ethyl)-7-methyl-4-(methyl-d3)-3-((S)-tetrahydrofuran-3-yl)-3,4-dihydro-5H-pyrazolo[3,4-c]isoquinolin-5-one] | < 1000
COC(=O)N1CCCC(n2ncc3c4c(C(C)Nc5ccc(Cl)nc5-c5cnn(C)c5)cc(C)cc4c(=O)n(C)c32)C1 (stereo not shown) [Example 281, methyl 3-[9-[1-[[6-chloro-2-(1-methylpyrazol-4-yl)-3-pyridyl]amino]ethyl]-4,7-dimethyl-5-oxo-pyrazolo[3,4-c]isoquinolin-3-yl]piperidine-1-carboxylate] | < 1000
Cc1cc(C(C)Nc2ccc(Cl)nc2-c2ncn(C)n2)c2c(c1)c(=O)n1c3c2cnn3CCC1 (stereo not shown) [Compound 296, 10-(1-((6-chloro-2-(1-methyl-1H-1,2,4-triazol-3-yl)pyridin-3-yl)amino)ethyl)-8-methyl-4,5-dihydro-3H,6H-2,2a,5a-triazaaceanthrylen-6-one] | < 1000
Cc1cc(C(C)Nc2ccc(Cl)nc2-c2ncn(C)n2)c2c(c1)c(=O)n(C)c1c(-c3ccnc(C)c3)ncn21 (stereo not shown) [Compound 115, 9-(1-((6-chloro-2-(1-methyl-1H-1,2,4-triazol-3-yl)pyridin-3-yl)amino)ethyl)-4,7-dimethyl-3-(2-methylpyridin-4-yl)imidazo[1,5-a]quinazolin-5(4H)-one] | < 1000
Cc1cc(C(C)Nc2ccc(Cl)nc2-c2ccc(CN(C)C)nc2)c2c(c1)c(=O)n1c3c2cnn3CCC1 (stereo not shown) [Compound 324, 10-(1-((6-Chloro-6′-((dimethylamino)methyl)-[2,3′-bipyridin]-3-yl)amino)ethyl)-8-methyl-4,5-dihydro-3H,6H-2,2a,5a-triazaaceanthrylen-6-one] | < 1000
Cc1cc(C(C)Nc2ccc(Cl)nc2-c2ncn(C)n2)c2c(c1)c(=O)n(C)c1c2cnn1C1CCN(CCC#N)CC1 (stereo not shown) [Compound 180, 3-[4-[9-[1-[[6-Chloro-2-(1-methyl-1,2,4-triazol-3-yl)-3-pyridyl]amino]ethyl]-4,7-dimethyl-5-oxo-pyrazolo[3,4-c]isoquinolin-3-yl]-1-piperidyl]propanenitrile] | < 1000

More lines, now with the values ahead:

IC50 [nM] | SMILES
< 1000 | Cc1cc(C(C)Nc2ccccc2C(=O)O)c2c(c1)c(=O)n(C)c1nn(CCc3ccccc3)cc21 (stereo not shown) [Compound I-28, 2-((1-(4,7-Dimethyl-5-oxo-2-phenethyl-4,5-dihydro-2/I-pyrazolo[3,4-c]isoquinolin-9-yl)ethyl)amino)benzoic acid]
< 1000 | CC(Nc1ccccc1C(=O)O)c1cc(Cl)cc2c(=O)n(C)c3cncn3c12 (stereo not shown) [Compound I-10, 2-((1-(7-Chloro-4-methyl-5-oxo-4,5-dihydroimidazo[1,5-a]quinazolin-9-yl)ethyl)amino)benzoic acid]
< 1000 | Cc1cc(C(C)Nc2ccccc2C(=O)O)c2c(c1)c(=O)n(C)c1nc(N(C)C)ccc21 (stereo not shown) [Compound I-33, 2-[1-[3-(Dimethylamino)-5,8-dimethyl-6-oxo-benzo[c][1,8]naphthyridin-10-yl]ethylamino]benzoic acid]
< 1000 | CCn1c(=O)c2cc(Cl)cc(C(C)Nc3ccccc3C(=O)O)c2n2cncc12 (stereo not shown) [Compound I-12, 2-((1-(7-Chloro-4-ethyl-5-oxo-4,5-dihydroimidazo[1,5-a]quinazolin-9-yl)ethyl)amino)benzoic acid]
< 1000 | CCn1c(=O)c2cc(C)cc(C(C)Nc3ccccc3C(=O)O)c2c2cnn(C)c21 (stereo not shown) [Compound I-21, 2-((1-(4-Ethyl-3,7-dimethyl-5-oxo-4,5-dihydro-3H-pyrazolo[3,4-c]isoquinolin-9-yl)ethyl)amino)benzoic acid]
< 1000 | Cc1cc(C(C)Nc2ccccc2C(=O)O)c2c(c1)c(=O)n(C)c1cncn21 (stereo not shown) [Compound I-4, 2-((1-(4,7-Dimethyl-5-oxo-4,5-dihydroimidazo[1,5-a]quinazolin-9-yl)ethyl)amino)benzoic acid]
< 1000 | CC(Nc1ccccc1C(=O)O)c1cc(Cl)cc2c(=O)n(C)c3c(cnn3C)c12 (stereo not shown) [Compound I-35, 2-((1-(7-Chloro-3,4-dimethyl-5-oxo-4,5-dihydro-3H-pyrazolo[3,4-c]isoquinolin-9-yl)ethyl)amino)benzoic acid]
< 1000 | CCn1ncc2c3c(C(C)Nc4ccc(Cl)nc4C(=O)O)cc(C)cc3c(=O)n(C)c21 (stereo not shown) [Compound I-19, 6-Chloro-3-((1-(3-ethyl-4,7-dimethyl-5-oxo-4,5-dihydro-3H-pyrazolo[3,4-c]isoquinolin-9-yl)ethyl)amino)picolinic acid]
